Reference: patent publication US10781211B2, “Spirocycle compounds and methods of making and using same” (Lundbeck La Jolla Research Center, Inc., priority 2016, dated 2020)

Experiments:
Assay type in all cases: in vivo
Conditions in all cases: 5 mg/kg oral gavage
FAAH = FAAH (Mus musculus (Mouse), UniProt O08914); test: Mouse brain proteomes from inhibitor treated mice (oral gavage, sacrifice 4 h after administration, ABPP analysis), FAAH
Outline: (§1)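 Read-out is % inhibition at 5 mg/kg in brain proteomes profiled by activity-based protein profiling. Inhibitors were dosed orally to wild-type C57Bl/6J mice, with sacrifice at 4 h.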

ABHD6 = ABHD6 (Mus musculus (Mouse), UniProt Q8R2Y0); test: Mouse brain proteomes from inhibitor treated mice (oral gavage, sacrifice 4 h after administration, ABPP analysis), ABHD6
Outline: as §1

MAGL = MAGL (Mus musculus (Mouse), UniProt O35678); test: Mouse brain proteomes from inhibitor treated mice (oral gavage, sacrifice 4 h after administration, ABPP analysis)
Description: Preparation of Mouse Brain Proteomes from Inhibitor Treated Mice.
Inhibitors were administered to wild-type C57Bl/6J by oral gavage in a vehicle, e.g. PEG400/Ethanol/PBS (7/2/1). Each animal was sacrificed 4 h following administration and brain proteomes were prepared and analyzed according to previously established methods (See Niphakis, M. J., et al. (2011) ACS Chem. Neurosci. and Long, J. Z., et al. Nat. Chem. Biol. 5:37-44). Data from this assay is shown in Table 2 (% inhibition at 5 mg/kg).

Chain of ABHD6 (Q8R2Y0 whole entry): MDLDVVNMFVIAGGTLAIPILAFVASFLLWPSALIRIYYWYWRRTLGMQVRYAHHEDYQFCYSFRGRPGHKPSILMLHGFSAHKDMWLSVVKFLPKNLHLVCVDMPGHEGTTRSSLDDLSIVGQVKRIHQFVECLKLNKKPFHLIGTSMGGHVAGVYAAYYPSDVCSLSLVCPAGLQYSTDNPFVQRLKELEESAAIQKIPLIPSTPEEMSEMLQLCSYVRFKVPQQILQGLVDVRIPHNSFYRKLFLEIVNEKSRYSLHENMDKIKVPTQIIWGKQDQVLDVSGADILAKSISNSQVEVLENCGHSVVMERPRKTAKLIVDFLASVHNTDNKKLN
Chain of MAGL (O35678 whole entry): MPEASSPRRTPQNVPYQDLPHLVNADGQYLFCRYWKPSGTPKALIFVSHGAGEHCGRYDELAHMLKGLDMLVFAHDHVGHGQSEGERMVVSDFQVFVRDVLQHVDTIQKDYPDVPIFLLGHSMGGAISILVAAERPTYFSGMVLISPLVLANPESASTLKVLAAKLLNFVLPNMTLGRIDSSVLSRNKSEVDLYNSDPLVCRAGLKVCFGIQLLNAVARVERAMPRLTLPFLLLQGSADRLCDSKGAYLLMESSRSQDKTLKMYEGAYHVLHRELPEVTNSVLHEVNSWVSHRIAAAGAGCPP
Chain of FAAH (O08914 whole entry): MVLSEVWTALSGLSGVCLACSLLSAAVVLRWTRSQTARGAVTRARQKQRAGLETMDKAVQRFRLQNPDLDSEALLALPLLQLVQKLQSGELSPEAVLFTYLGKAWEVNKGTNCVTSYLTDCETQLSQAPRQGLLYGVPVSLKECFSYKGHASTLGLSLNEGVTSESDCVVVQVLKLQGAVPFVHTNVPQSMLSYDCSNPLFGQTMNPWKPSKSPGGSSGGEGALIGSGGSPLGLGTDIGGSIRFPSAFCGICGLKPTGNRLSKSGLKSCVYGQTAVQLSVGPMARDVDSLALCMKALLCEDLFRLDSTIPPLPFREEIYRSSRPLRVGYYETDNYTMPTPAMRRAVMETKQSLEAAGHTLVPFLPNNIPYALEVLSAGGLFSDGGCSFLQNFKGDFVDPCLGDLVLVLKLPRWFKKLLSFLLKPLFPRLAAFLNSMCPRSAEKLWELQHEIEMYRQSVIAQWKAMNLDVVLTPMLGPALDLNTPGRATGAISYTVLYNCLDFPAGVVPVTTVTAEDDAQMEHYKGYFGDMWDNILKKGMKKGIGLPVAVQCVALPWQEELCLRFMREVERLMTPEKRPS

Row | FAAH % Inh 5 mg/kg (mouse) (FAAH) | ABHD6 % Inh 5 mg/kg (mouse) (ABHD6) | MAGL % Inh 5 mg/kg (mouse) (MAGL) | Structure (SMILES)
1 | # (# is < 25%) | # (# is < 25%) | ### (### is ≥ 75%) | COc1cc(Cl)ccc1CN1CCCC12CCN(C(=O)OC(C(F)(F)F)C(F)(F)F)CC2 [Example 9, 1,1,1,3,3,3-Hexafluoropropan-2-yl 1-(4-chloro-2-methoxybenzyl)-1,8-diazaspiro[4.5]decane-8-carboxylate]
2 | # (# is < 25%) | # (# is < 25%) | # (# is < 25%) | CN(C)C(=O)C1CCN(c2cc(C(F)(F)F)ccc2CN2CCCC23CCN(C(=O)OC(C(F)(F)F)C(F)(F)F)CC3)CC1 [Example 16, 1,1,1,3,3,3-Hexafluoropropan-2-yl 1-(2-(4-(dimethylcarbamoyl)piperidin-1-yl)-4-(trifluoromethyl)benzyl)-1,8-diazaspiro[4.5]decane-8-carboxylate]
3 | # (# is < 25%) | # (# is < 25%) | ### (### is ≥ 75%) | O=C(OC(C(F)(F)F)C(F)(F)F)N1CCC2(CCN(Cc3ccc(C(F)(F)F)cc3N3CCOCC3)C2)CC1 [Example 22, 1,1,1,3,3,3-Hexafluoropropan-2-yl 2-(2-morpholino-4-(trifluoromethyl)benzyl)-2,8-diazaspiro[4.5]decane-8-carboxylate]
4 | # (# is < 25%) | # (# is < 25%) | ### (### is ≥ 75%) | O=C(OC(C(F)(F)F)C(F)(F)F)N1CCC2(CCN(Cc3ccc(Cl)cc3N3CCCCC3)C2)CC1 [Example 24, 1,1,1,3,3,3-Hexafluoropropan-2-yl 2-(4-chloro-2-(piperidin-1-yl)benzyl)-2,8-diazaspiro[4.5]decane-8-carboxylate]
5 | # (# is < 25%) | # (# is < 25%) | ### (### is ≥ 75%) | O=C(OC(C(F)(F)F)C(F)(F)F)N1CCC2(CCCN2Cc2cccc(OCCF)c2)CC1 [Example 27, 1,1,1,3,3,3-Hexafluoropropan-2-yl 1-(3-(2-fluoroethoxy)benzyl)-1,8-diazaspiro[4.5]decane-8-carboxylate]
6 | # (# is < 25%) | # (# is < 25%) | ### (### is ≥ 75%) | O=C(OC(C(F)(F)F)C(F)(F)F)N1CCC2(CCCN2Cc2ccc(Cl)c(OCCF)c2)CC1 [Example 28, 1,1,1,3,3,3-Hexafluoropropan-2-yl 1-(4-chloro-3-(2-fluoroethoxy)benzyl)-1,8-diazaspiro[4.5]decane-8-carboxylate]
7 | # (# is < 25%) | # (# is < 25%) | ### (### is ≥ 75%) | O=C(OC(C(F)(F)F)C(F)(F)F)N1CCC2(CCCN2Cc2ccc(Cl)cc2OCCF)CC1 [Example 30, 1,1,1,3,3,3-Hexafluoropropan-2-yl 1-(4-chloro-2-(2-fluoroethoxy)benzyl)-1,8-diazaspiro[4.5]decane-8-carboxylate]
8 | # (# is < 25%) | # (# is < 25%) | ### (### is ≥ 75%) | CCOc1cc(CN2CCCC23CCN(C(=O)OC(C(F)(F)F)C(F)(F)F)CC3)ccc1Cl [Example 32, 1,1,1,3,3,3-Hexafluoropropan-2-yl 1-(4-chloro-3-ethoxybenzyl)-1,8-diazaspiro[4.5]decane-8-carboxylate]
9 | # (# is < 25%) | # (# is < 25%) | ### (### is ≥ 75%) | O=C(OC(C(F)(F)F)C(F)(F)F)N1CCC2(CCCN2Cc2cc(Cl)cc(N3CCCC3)c2)CC1 [Example 34, 1,1,1,3,3,3-Hexafluoropropan-2-yl 1-(3-chloro-5-(pyrrolidin-1-yl)benzyl)-1,8-diazaspiro[4.5]decane-8-carboxylate]
10 | # (# is < 25%) | # (# is < 25%) | ### (### is ≥ 75%) | O=C(OC(C(F)(F)F)C(F)(F)F)N1CCC2(CCCN2Cc2cc(N3CCOCC3)cc(C(F)(F)F)c2)CC1 [Example 35, 1,1,1,3,3,3-Hexafluoropropan-2-yl 1-(3-morpholino-5-(trifluoromethyl)benzyl)-1,8-diazaspiro[4.5]decane-8-carboxylate]
11 | # (# is < 25%) | # (# is < 25%) | ### (### is ≥ 75%) | O=C(OC(C(F)(F)F)C(F)(F)F)N1CCC2(CCCN2Cc2cc(N3CCCC3)cc(C(F)(F)F)c2)CC1 [Example 36, 1,1,1,3,3,3-Hexafluoropropan-2-yl 1-(3-(pyrrolidin-1-yl)-5-(trifluoromethyl)benzyl)-1,8-diazaspiro[4.5]decane-8-carboxylate]
12 | # (# is < 25%) | # (# is < 25%) | ### (### is ≥ 75%) | O=C(OC(C(F)(F)F)C(F)(F)F)N1CCC2(CCCN2Cc2cc(OC(F)(F)F)cc(N3CCOCC3)c2)CC1 [Example 37, 1,1,1,3,3,3-Hexafluoropropan-2-yl 1-(3-morpholino-5-(trifluoromethoxy)benzyl)-1,8-diazaspiro[4.5]decane-8-carboxylate]
13 | # (# is < 25%) | # (# is < 25%) | ### (### is ≥ 75%) | O=C(OC(C(F)(F)F)C(F)(F)F)N1CCC2(CCCN2Cc2cc(N3CCS(=O)(=O)CC3)cc(C(F)(F)F)c2)CC1 [Example 42, 1,1,1,3,3,3-Hexafluoropropan-2-yl 1-(3-(1,1-dioxidothiomorpholino)-5-(trifluoromethyl)benzyl)-1,8-diazaspiro[4.5]decane-8-carboxylate]
14 | # (# is < 25%) | # (# is < 25%) | ### (### is ≥ 75%) | O=C(OC(C(F)(F)F)C(F)(F)F)N1CCC2(CCCN2Cc2cc(N3CC4COCC4C3)cc(C(F)(F)F)c2)CC1 (stereo not drawn) [Example 46, 1,1,1,3,3,3-Hexafluoropropan-2-yl 1-(3-(tetrahydro-1H-furo[3,4-c]pyrrol-5(3H)-yl)-5-(trifluoromethyl)benzyl)-1,8-diazaspiro[4.5]decane-8-carboxylate]
15 | # (# is < 25%) | # (# is < 25%) | ### (### is ≥ 75%) | O=C(OC(C(F)(F)F)C(F)(F)F)N1CCC2(CCCN2Cc2cc(N3CCC3)cc(C(F)(F)F)c2)CC1 [Example 47, 1,1,1,3,3,3-Hexafluoropropan-2-yl 1-(3-(azetidin-1-yl)-5-(trifluoromethyl)benzyl)-1,8-diazaspiro[4.5]decane-8-carboxylate]
16 | # (# is < 25%) | # (# is < 25%) | # (# is < 25%) | CC1(C)CC2(CCN(C(=O)OC(C(F)(F)F)C(F)(F)F)CC2)CN1Cc1ccc(C(F)(F)F)cc1N1CCC2(CCOCC2)C1 [Example 52, 1,1,1,3,3,3-Hexafluoropropan-2-yl 2-(2-(8-oxa-2-azaspiro[4.5]decan-2-yl)-4-(trifluoromethyl)benzyl)-3,3-dimethyl-2,8-diazaspiro[4.5]decane-8-carboxylate]
17 | ### (### is ≥ 75%) | # (# is < 25%) | ### (### is ≥ 75%) | O=C(OC(C(F)(F)F)C(F)(F)F)N1CCC2(CCCN2Cc2cccc(Cl)c2)CC1 [Example 61, 1,1,1,3,3,3-Hexafluoropropan-2-yl 1-(3-chlorobenzyl)-1,8-diazaspiro[4.5]decane-8-carboxylate]
18 | # (# is < 25%) | # (# is < 25%) | ### (### is ≥ 75%) | O=C(OC(C(F)(F)F)C(F)(F)F)N1CCC2(CCCN2Cc2ccc(C(F)(F)F)cc2N2CCOCC2)CC1 [Example 67, 1,1,1,3,3,3-Hexafluoropropan-2-yl 1-(2-morpholino-4-(trifluoromethyl)benzyl)-1,8-diazaspiro[4.5]decane-8-carboxylate]
19 | # (# is < 25%) | # (# is < 25%) | ### (### is ≥ 75%) | CN1CCCc2ccc(CN3CCCC34CCN(C(=O)OC(C(F)(F)F)C(F)(F)F)CC4)cc21 [Example 68, 1,1,1,3,3,3-Hexafluoropropan-2-yl 1-((1-methyl-1,2,3,4-tetrahydroquinolin-7-yl)methyl)-1,8-diazaspiro[4.5]decane-8-carboxylate]
20 | # (# is < 25%) | # (# is < 25%) | ### (### is ≥ 75%) | O=C(OC(C(F)(F)F)C(F)(F)F)N1CCC2(CCCN2Cc2ccc(Cl)cc2N2CC3CCC(C2)O3)CC1 [Example 75, 1,1,1,3,3,3-Hexafluoropropan-2-yl 1-(2-(8-oxa-3-azabicyclo[3.2.1]octan-3-yl)-4-chlorobenzyl)-1,8-diazaspiro[4.5]decane-8-carboxylate]
21 | # (# is < 25%) | # (# is < 25%) | ### (### is ≥ 75%) | O=C(OC(C(F)(F)F)C(F)(F)F)N1CCC2(CCCN2Cc2ccc(Cl)cc2N2CCCC2)CC1 [Example 76, 1,1,1,3,3,3-Hexafluoropropan-2-yl 1-(4-chloro-2-(pyrrolidin-1-yl)benzyl)-1,8-diazaspiro[4.5]decane-8-carboxylate]
